Paper PMC8342789, “Structural insights into a flavin-dependent dehalogenase HadA explain catalysis and substrate inhibition via quadruple π-stacking” (The Journal of Biological Chemistry, 2021)
Substitutions are numbered along the chain they refer to.

Tests used:
[1] = molecular target: T1, HadA (Ralstonia pickettii, UniProt Q53008); assay: stopped-flow and HPLC of hydroquinone product; type: biochemical; details: 0.1-6.4 mM 4CP preincubated with enzyme; 25 μM FADH-; 20 mM Hepes pH 7.5; substrate inhibition by dead-end complex
T1 construct: recombinant, E. coli plasmid hadAWT-pET-11a; homotetramer (dimer of dimers); residues 1-517 by domain borders
T1 sequence (Q53008 1-517): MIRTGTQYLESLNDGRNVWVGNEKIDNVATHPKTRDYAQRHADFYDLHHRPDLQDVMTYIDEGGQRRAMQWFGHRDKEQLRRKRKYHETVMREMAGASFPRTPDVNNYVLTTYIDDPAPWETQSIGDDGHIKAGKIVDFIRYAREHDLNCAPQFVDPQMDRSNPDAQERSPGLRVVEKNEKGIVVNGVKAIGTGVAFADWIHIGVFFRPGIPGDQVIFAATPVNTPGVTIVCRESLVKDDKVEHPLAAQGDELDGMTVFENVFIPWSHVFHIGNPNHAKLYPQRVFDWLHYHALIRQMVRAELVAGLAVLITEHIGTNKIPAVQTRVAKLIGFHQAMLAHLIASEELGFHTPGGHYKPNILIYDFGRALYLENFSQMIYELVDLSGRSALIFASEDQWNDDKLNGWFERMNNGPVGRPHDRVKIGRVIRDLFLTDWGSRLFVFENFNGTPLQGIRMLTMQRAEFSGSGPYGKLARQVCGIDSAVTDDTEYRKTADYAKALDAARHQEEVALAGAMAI

[2] = molecular target: T1, HadA; assay: X-ray crystal structure, […] Å; type: binding
[3] = molecular target: the molecule itself; assay: crystal structure; HadA (0.3 mM) mixed with FADH- (12 mM) and 4NP (12 mM) in an anaerobic glove box, incubated 2 h; microbatch at 25 °C, sodium citrate, PEG3350, 5% trifluoroethanol, 0.1 M Bis-Tris propane pH 6.5; data at 100 K; molecular replacement with apo-HadA (PDB 6JHM chain A)

Oc1ccc(Cl)cc1 [4-chlorophenol]
stopped-flow and HPLC of hydroquinone product [1]: increasing the 4CP concentration significantly altered the kinetics of the reaction

O=[N+]([O-])c1ccc(O)cc1 [4-nitrophenol]
X-ray crystal structure, 2.3 Å ([2]; ternary complex with FADH-, active site of subunit A, second site at C/D dimer interface (two 4NP, quadruple π-stacking)): only one 4NP molecule could be clearly seen in the expected pocket of subunit A

Cc1cc2c(cc1C)N(C[C@H](O)[C@H](O)[C@H](O)COP(=O)(O)OP(=O)(O)OC[C@H]1O[C@@H](n3cnc4c(N)ncnc43)[C@H](O)[C@@H]1O)c1[nH]c(=O)[nH]c(=O)c1N2 [FADH^–]
X-ray crystal structure, 2.3 Å ([2]; ternary complex with 4NP): strong electron densities could be observed for all four FADH^– molecules

B1: wild-type HadA, flavin-dependent monooxygenase/dehalogenase component from Ralstonia pickettii (enzyme, UniProt Q53008 1-517, looked up)
chain: T1 sequence (Q53008 1-517)
notes: HadA monooxygenase of the had pathway, Ralstonia pickettii; each protomer is described as N-terminal domain (residues 1-146), beta-sheet domain (147-275) and C-terminal domain (276-517); also called HadAWT; HadA monooxygenase; source: plasmid hadAWT-pET-11a
stoichiometry N [3]: 4

B2: HadA Phe441Val variant (enzyme)
chain: T1 sequence (Q53008 1-517) with F441V
notes: HadA monooxygenase, Ralstonia pickettii, with Phe441Val; same limits as the wild type (domains described over residues 1-517); source: site-directed mutagenesis of hadAWT-pET-11a
binding result [3]: binds
